We go through four compounds from BindingDB's records for doi:10.1021/jm960093o (Agouron Pharmaceuticals, 1996).

The assay addresses T1, Dimer of Gag-Pol polyprotein [489-587] (Human immunodeficiency virus 1, UniProt P12497).
T1 construct: 489-587
Description: Protease Inhibition Assay. The conditions noted are these: pH 5.6; 37 °C. Here is the method:
Protease activity was measured by continuous chromogenic assay. The chromogenic peptide His-Lys-Ala-Arg-Val-Leu- (p-NO2-Phe)-Glu-Ala-Nleu-Ser (Bachem) was used as a substrate. Reactions were followed by the decrease of absorbance at 300 nm measured by spectrophotometer. Experimental results were analyzed by the nonlinear regression analysis, using a mathematical model for tight binding inhibitors.

Consider `CC(C)(C)NC(=O)c1ccccc1CC(O)CSc1ccccc1NC(=O)C(C)(C)C` (centres undefined) [N-tert-butyl-2-(3-{[2-(2,2-dimethylpropanamido)phenyl]sulfanyl}-2-hydroxypropyl)benzamide], for which the IC50 is over 200 µM.

In turn, `CC(C)(C)NC(=O)c1ccccc1NCC(O)Cc1ccc2ccccc2c1C(=O)NC(C)(C)C` (centres undefined) [N-tert-butyl-2-(3-{[2-(tert-butylcarbamoyl)phenyl]amino}-2-hydroxypropyl)naphthalene-1-carboxamide] had a concentration for half-maximal inhibition (IC50) of 120 µM.

With `CC(C)(C)NC(=O)c1ccccc1SCC(O)c1ccccc1C(=O)NC(C)(C)C` (centres undefined) [N-tert-butyl-2-({2-[2-(tert-butylcarbamoyl)phenyl]-2-hydroxyethyl}sulfanyl)benzamide], the IC50 was over 200 µM.

In the case of `CC(C)N1CCC(CC(O)CCc2ccc3ccccc3c2C(=O)NC(C)(C)C)=C(C(=O)NC(C)(C)C)C1` (centres undefined) [N-tert-butyl-4-{4-[1-(tert-butylcarbamoyl)naphthalen-2-yl]-2-hydroxybutyl}-1-(propan-2-yl)-1,2,5,6-tetrahydropyridine-3-carboxamide], the midpoint of inhibition, the IC50, lay at 70 µM.

Usually IC50 stands for the concentration that gives 50% inhibition. Read a low IC50 as greater potency in that assay.
